Data reported in the supplement of paper PMC10307832.

Columns and labels:
Experiment in all cases: relative viability (nuclei count vs DMSO), 5 days (fraction); higher = more cells survive
[1] = compound: O=C(C[C@H]1NCCC[C@@H]1O)Cn1cnc2cc(Br)c(Cl)cc2c1=O (racemic) [Halofuginone] + N=C(N)NC(=N)NCCc1ccccc1 [Phenformin] (partner 250 µM)
How it was run: (§1)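 Relative viability equals treated-well nuclei counts divided by vehicle-well nuclei counts. Counts came from 4× images of lung cancer cell lines grown in 1536-well plates for 5 days after pin-tool dosing on the day after seeding. Dosing used one drug alone or a fixed anchor-drug dose plus five library-drug doses (not always all listed) in √10 steps, and values are medians of duplicate plates.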

[2] = compound: COc1cc2c(Oc3ccc4[nH]c(C)cc4c3F)ncnc2cc1OCCCN1CCCC1 [Cediranib] + CS(=O)(=O)CCNCc1ccc(-c2ccc3ncnc(Nc4ccc(OCc5cccc(F)c5)c(Cl)c4)c3c2)o1 [Lapatinib] (partner 2 µM)
How it was run: as §1

[3] = compound: COc1cc2c(Oc3ccc4[nH]c(C)cc4c3F)ncnc2cc1OCCCN1CCCC1 [Cediranib] + O=C(c1cc(Cc2n[nH]c(=O)c3ccccc23)ccc1F)N1CCN(C(=O)C2CC2)CC1 [Olaparib] (partner 8 µM)
How it was run: as §1

[4] = compound: Nc1ncn([C@H]2C[C@H](O)[C@@H](CO)O2)c(=O)n1 [Decitabine] + CS(=O)(=O)CCNCc1ccc(-c2ccc3ncnc(Nc4ccc(OCc5cccc(F)c5)c(Cl)c4)c3c2)o1 [Lapatinib] (partner 2 µM)
How it was run: as §1

Row | Cell Line | relative viability ([1]; first compound 0.001 µM) | relative viability ([1]; first compound 0.003162 µM) | relative viability ([1]; first compound 0.01 µM) | relative viability ([1]; first compound 0.03162 µM) | relative viability ([1]; first compound 0.1 µM) | relative viability ([2]; first compound 0.04 µM) | relative viability ([2]; first compound 0.4 µM) | relative viability ([2]; first compound 1.265 µM) | relative viability ([2]; first compound 4 µM) | relative viability ([3]; first compound 0.04 µM) | relative viability ([3]; first compound 0.1265 µM) | relative viability ([3]; first compound 0.4 µM) | relative viability ([3]; first compound 1.265 µM) | relative viability ([3]; first compound 4 µM) | relative viability ([4]; first compound 0.1265 µM) | relative viability ([4]; first compound 0.4 µM) | relative viability ([4]; first compound 1.265 µM) | relative viability ([4]; first compound 4 µM) | relative viability ([2]; first compound 0.1265 µM) | relative viability ([4]; first compound 0.04 µM)
1 | NCI-H1623 | 0.624 | 0.548 | 0.59 | 0.576 | 0.432 | – | – | – | – | – | – | – | – | – | – | – | – | – | – | –
2 | HCC-827 | 0.407 | 0.426 | 0.373 | 0.434 | 0.38 | 0.203 | 0.178 | 0.194 | 0.208 | 0.466 | 0.62 | 0.661 | 0.617 | 0.646 | 0.168 | 0.187 | 0.187 | 0.2 | – | –
3 | NCI-H322M | 0.783 | 0.728 | 0.721 | 0.566 | 0.478 | 0.578 | 0.562 | 0.617 | 0.52 | 0.857 | 0.757 | 0.618 | 0.783 | 0.762 | 0.629 | 0.609 | 0.434 | 0.421 | 0.915 | 0.682
4 | ChaGo-K-1 | 0.473 | 0.486 | 0.573 | 0.392 | 0.462 | – | – | – | – | 0.403 | 0.307 | 0.403 | 0.424 | 0.41 | – | – | – | – | – | –
5 | BEN | 0.263 | 0.263 | 0.26 | 0.285 | 0.237 | 0.945 | 0.665 | 0.598 | 0.681 | 1.11 | 0.613 | 1.05 | 1.13 | 1.04 | 0.678 | 0.358 | 0.45 | 0.348 | – | 0.775
6 | NCI-H2347 | 0.535 | 0.521 | 0.53 | 0.477 | 0.317 | 1.07 | 0.916 | 0.909 | 0.964 | 0.571 | 0.675 | 0.59 | 0.577 | 0.619 | 0.938 | 0.793 | 0.548 | 0.633 | 0.512 | 0.895
7 | LOU-NH91 | 0.75 | 0.686 | 0.65 | 0.786 | 0.628 | 0.818 | 0.807 | 0.676 | 0.761 | 0.972 | 0.936 | 0.88 | 0.908 | 0.86 | 0.712 | 0.649 | 0.689 | 0.661 | 0.788 | 0.764
8 | NCI-H2228 | 0.32 | 0.332 | 0.307 | 0.338 | 0.172 | 1.06 | 0.928 | 1.18 | 1.17 | 0.801 | 1.02 | 0.642 | 0.707 | 0.556 | 0.727 | 0.489 | 0.282 | 0.209 | 1.07 | 0.595
9 | NCI-H2342 | 0.719 | 0.566 | 0.561 | 0.688 | 0.547 | – | – | – | – | 0.419 | 0.398 | 0.46 | 0.455 | 0.458 | – | – | – | – | – | –
10 | HCC-366 | 0.723 | 0.633 | 0.646 | 0.581 | 0.458 | 1.08 | 0.983 | 0.957 | 1.23 | 0.413 | 0.354 | 0.392 | 0.362 | 0.395 | 1.07 | 0.214 | 0.164 | 0.113 | 0.479 | 0.938
11 | NCI-H2405 | 0.423 | 0.436 | 0.414 | 0.396 | 0.337 | 1.02 | 1.11 | 1.13 | 1.09 | 0.888 | 0.897 | 0.766 | 0.888 | 0.876 | 0.904 | 0.679 | 0.553 | 0.434 | 1.13 | 0.942
12 | Calu-6 | – | – | – | – | – | 1.17 | 0.874 | 1.03 | 1.14 | 0.592 | 0.566 | 0.599 | 0.582 | 0.56 | 0.689 | 0.316 | 0.308 | 0.264 | 1.08 | 0.87
13 | 201T | 0.459 | 0.472 | 0.442 | 0.457 | 0.348 | 1.08 | 1.02 | 1.01 | 0.996 | 0.805 | 0.862 | 0.808 | 0.829 | 0.828 | 1.04 | 1.13 | 0.627 | 0.993 | 0.897 | 1.04
14 | CAL-12T | 0.582 | 0.592 | 0.555 | 0.603 | 0.509 | 0.681 | 0.614 | 0.676 | 0.877 | 0.815 | 0.646 | 0.647 | 0.74 | 0.786 | 0.698 | 0.264 | 0.504 | 0.375 | – | 0.607
15 | HCC-44 | 0.23 | 0.222 | 0.196 | 0.178 | 0.13 | 0.982 | 0.951 | 0.995 | 0.949 | 0.966 | 0.894 | 0.963 | 0.932 | 0.974 | 1 | 0.298 | 0.661 | 0.51 | – | 0.84
16 | NCI-H358 | 0.303 | 0.312 | 0.261 | 0.189 | 0.079 | 0.478 | 0.454 | 0.419 | 0.466 | 0.659 | 0.66 | 0.503 | 0.64 | 0.666 | 0.512 | 0.388 | 0.284 | 0.334 | 0.666 | 0.468
17 | SW 900 | 0.657 | 0.565 | 0.695 | 0.712 | 0.4 | – | – | – | – | 0.915 | 0.845 | 0.794 | 0.899 | 0.925 | – | – | – | – | – | –
18 | NCI-H2087 | 0.487 | 0.535 | 0.424 | 0.44 | 0.362 | 1.08 | 1.01 | 0.984 | 1.07 | 0.609 | 0.62 | 0.575 | 0.567 | 0.708 | 0.637 | 0.457 | 0.346 | 0.37 | 0.825 | 0.774
